Where a name gives a salt, the structure may show the parent alone.
target: Met kinase (Homo sapiens, UniProt P08581); assay: Met kinase inhibition (cell assay); assay type: cell-based
Sequence (P08581 25-1390): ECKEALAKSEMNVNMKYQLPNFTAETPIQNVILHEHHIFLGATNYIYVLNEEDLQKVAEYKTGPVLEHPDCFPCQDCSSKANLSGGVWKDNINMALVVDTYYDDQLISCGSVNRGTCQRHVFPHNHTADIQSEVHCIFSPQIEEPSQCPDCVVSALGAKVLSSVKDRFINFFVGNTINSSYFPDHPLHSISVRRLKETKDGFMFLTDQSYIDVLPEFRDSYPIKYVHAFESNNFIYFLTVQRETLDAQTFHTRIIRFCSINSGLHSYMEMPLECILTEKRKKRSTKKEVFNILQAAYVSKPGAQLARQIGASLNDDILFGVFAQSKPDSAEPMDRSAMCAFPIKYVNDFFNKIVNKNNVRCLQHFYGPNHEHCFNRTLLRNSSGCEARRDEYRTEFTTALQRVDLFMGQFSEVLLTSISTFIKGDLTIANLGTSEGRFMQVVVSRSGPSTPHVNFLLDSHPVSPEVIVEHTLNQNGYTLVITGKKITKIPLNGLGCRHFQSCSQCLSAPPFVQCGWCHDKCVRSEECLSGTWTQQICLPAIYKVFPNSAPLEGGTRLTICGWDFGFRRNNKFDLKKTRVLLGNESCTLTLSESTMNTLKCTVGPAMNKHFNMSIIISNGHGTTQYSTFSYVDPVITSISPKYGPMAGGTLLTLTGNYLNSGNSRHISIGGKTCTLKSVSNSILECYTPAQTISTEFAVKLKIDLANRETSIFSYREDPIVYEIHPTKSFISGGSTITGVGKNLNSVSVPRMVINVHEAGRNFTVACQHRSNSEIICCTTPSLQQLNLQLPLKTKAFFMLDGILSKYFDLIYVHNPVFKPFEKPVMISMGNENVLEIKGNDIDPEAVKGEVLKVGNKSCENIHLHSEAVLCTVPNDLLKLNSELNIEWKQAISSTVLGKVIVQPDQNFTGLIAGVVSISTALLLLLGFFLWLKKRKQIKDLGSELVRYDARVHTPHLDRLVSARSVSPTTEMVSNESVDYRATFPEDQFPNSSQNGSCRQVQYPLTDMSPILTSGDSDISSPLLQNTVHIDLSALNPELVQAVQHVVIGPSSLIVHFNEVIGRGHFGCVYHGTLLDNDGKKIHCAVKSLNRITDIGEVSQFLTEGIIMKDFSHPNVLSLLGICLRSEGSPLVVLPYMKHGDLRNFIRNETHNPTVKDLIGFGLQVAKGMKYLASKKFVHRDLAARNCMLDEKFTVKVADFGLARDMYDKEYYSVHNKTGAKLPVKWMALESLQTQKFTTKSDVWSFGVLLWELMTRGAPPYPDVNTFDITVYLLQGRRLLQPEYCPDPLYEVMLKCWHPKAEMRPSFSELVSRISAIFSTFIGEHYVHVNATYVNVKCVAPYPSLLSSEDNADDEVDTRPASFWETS

Row | IC50 [nM] | SMILES
1 | 10 to 1000 | CCOC(=O)Nc1cccc(C(C)n2c(=O)oc3ccc(C(=O)NCCCCN(C)C)cc32)c1 (stereo not drawn) [Compound A32, Ethyl (3-{1-[5-(4-dimethylaminobutylcarbamoy1)-2-oxobenzoxazol-3-yl]ethyl}phenyl)carbamate]
2 | 10 to 1000 | CN(C)CCCOc1cnc(-c2cccc(Cn3c(=O)oc4cc([N+](=O)[O-])ccc43)c2)nc1 [Compound A76]
3 | 10 to 1000 | CN1CCN(CCCOC(=O)Nc2cccc(Cn3c(=O)oc4ccc(Cl)cc43)c2)CC1 [Compound A2]
4 | 10 to 1000 | CCOC(=O)Nc1cccc(C(C)n2c(=O)oc3ccc(C(=O)NCCCN(C)C)cc32)c1 (stereo not drawn) [Compound A36, Ethyl (3-{1-[5-(3-dimethylaminopropylcarbamoy1)-2-oxobenzoxazol-3-yl]ethyl}phenyl)carbamate]
5 | 10 to 1000 | CCOC(=O)Nc1cccc(C(C)n2c(=O)oc3ccc(C(=O)NCCN(C)C)cc32)c1 (stereo not drawn) [Compound A33, Ethyl (3-{1-[5-(2-dimethylaminoethylcarbamoy1)-2-oxobenzoxazol-3-yl]ethyl}phenyl)carbamate]
6 | 10 to 1000 | CCCNC(=O)c1ccc2oc(=O)n(Cc3cccc(NC(=O)OCCCN4CCN(C)CC4)c3)c2c1 [Compound A5, 3-(4-Methylpiperazin-1-yl)propyl [3-(5-propylcarbamoyl-2-oxobenzoxazol-3-ylmethyl)phenyl]carbamate]
7 | 10 to 1000 | CN1CCN(CCCOC(=O)Nc2cccc(Cn3c(=O)oc4cc(F)c(F)cc43)c2)CC1 [Compound A19, 3-(4-Methylpiperazin-1-yl)propyl [3-(5,6-difluoro-2-oxobenzoxazol-3-ylmethyl)phenyl]carbamate]
8 | 10 to 1000 | CN(C)CCNC(=O)c1ccc2oc(=O)n(Cc3ccc4[nH]c(=O)[nH]c4c3)c2c1 [Compound A35, N-(2-dimethylaminoethyl)-2-oxo-3-(2-oxo-2,3-dihydro-1H-benzoimidazol-5-ylmethyl)-2,3-dihydrobenzoxazole-5-carboxamide]
9 | 10 to 1000 | CN(C)CCCOc1cnc(-c2cccc(Cn3c(=O)oc4cc5ccccc5cc43)c2)nc1 [Compound A96]
10 | 10 to 1000 | CN1CCN(CCCOC(=O)Nc2cccc(Cn3c(=O)oc4ccc(C(=O)N(C)C)cc43)c2)CC1 [Compound A3, 3-(4-Methylpiperazin-1-yl)propyl [3-(5-dimethylcarbamoyl-2-oxobenzoxazol-3-ylmethyl)phenyl]carbamate]
11 | 10 to 1000 | CC(=O)c1ccc2c(c1)oc(=O)n2Cc1cccc(NC(=O)OCCCN2CCN(C)CC2)c1 [Compound A22, 3-(4-Methylpiperazin-1-yl)propyl [3-(6-acetyl-2-oxobenzoxazol-3-ylmethyl)phenyl]carbamate]
12 | 10 to 1000 | CC(=O)c1ccc2oc(=O)n(Cc3cccc(-c4ncc(OCCCN(C)C)cn4)c3)c2c1 [Compound A67]
13 | 10 to 1000 | CCCNC(=O)c1ccc2oc(=O)n(Cc3cccc(NC(=O)OCCCN(C)C)c3)c2c1 [Compound A13, 3-Dimethylaminopropyl [3-(5-propylcarbamoyl-2-oxobenzoxazol-3-ylmethyl)phenyl]carbamate]
14 | 1000 to 10000 | O=c1oc2c3ncccc3ccc2n1Cc1cccc(-c2ncc(OCCN3CCOCC3)cn2)c1 [Compound A103]
15 | 10 to 1000 | CN1CCN(CCCOC(=O)Nc2cccc(Cn3c(=O)oc4cc(Cl)ccc43)c2)CC1 [Compound A6, 3-(4-Methylpiperazin-1-yl)propyl [3-(6-chloro-2-oxobenzoxazol-3-ylmethyl)phenyl]carbamate]
16 | 10 to 1000 | COC(=O)c1ccc2oc(=O)n(Cc3cccc(NC(=O)OCCCN(C)C)c3)c2c1 [Compound A15, 3-Dimethylaminopropyl [3-(5-methoxycarbonyl-2-oxobenzoxazol-3-ylmethyl)phenyl]carbamate]
17 | 1000 to 10000 | CN(C)CCCOc1cnc(-c2cccc(Cn3c(=O)oc4cc(S(=O)(=O)CCO)ccc43)c2)nc1 [Compound A92]
18 | 10 to 1000 | CN1CCN(CCOC(=O)Nc2cccc(Cn3c(=O)oc4ccccc43)c2)CC1 [Compound A17, 2-(4-Methylpiperazin-1-yl)ethyl [3-(2-oxobenzoxazol-3-ylmethyl)phenyl]carbamate]
19 | 10 to 1000 | CN(C)CCCCNC(=O)c1ccc2oc(=O)n(Cc3ccc4[nH]c(=O)[nH]c4c3)c2c1 [Compound A34, N-(4-Dimethylaminobutyl)-2-oxo-3-(2-oxo-2,3-dihydro-1H-benzimidazol-5-ylmethyl)-2,3-dihydrobenzoxazole-5-carboxamide]
20 | 10 to 1000 | CN(C)CCCOC(=O)Nc1cccc(Cn2c(=O)oc3cccnc32)c1 [Compound A11, 3-Dimethylaminopropyl [3-(2-oxooxazolo[4,5-b]pyridin-3-ylmethyl)phenyl]carbamate]
21 | 10 to 1000 | CCCNC(=O)c1ccc2oc(=O)n(Cc3cccc(NC(=O)OCCCN4CCNCC4)c3)c2c1 [Compound A10, 3-Piperazin-1-ylpropyl [3-(5-propylcarbamoyl-2-oxobenzoxazol-3-ylmethyl)phenyl]carbamate]

Row | IC50 [nM] | SMILES
22 | 10 to 1000 | Cc1ccc2oc(=O)n(Cc3cccc(NC(=O)OCCCN4CCN(C)CC4)c3)c2c1 [Compound A7, 3-(4-Methylpiperazin-1-yl)propyl [3-(5-methyl-2-oxobenzoxazol-3-ylmethyl)phenyl]carbamate]
23 | 10 to 1000 | COc1ccc2oc(=O)n(Cc3cccc(NC(=O)OCCCN4CCN(C)CC4)c3)c2c1 [Compound A1, 3-(4-methylpiperazin-1-yl)propyl [3-(5-methoxy-2-oxobenzooxazol-3-ylmethyl)phenyl]carbamate]
24 | 10 to 1000 | CC(=O)c1ccc2oc(=O)n(Cc3cccc(NC(=O)OCCCN4CCN(C)CC4)c3)c2c1 [Compound A8, 3-(4-Methylpiperazin-1-yl)propyl [3-(5-acetyl-2-oxobenzoxazol-3-ylmethyl)phenyl]carbamate]
25 | 10 to 1000 | CCOC(=O)Nc1cccc(Cn2c(=O)oc3ccc(C(=O)NCCCN(C)C)cc32)c1 [Compound A31, Ethyl {3-[5-(3-dimethylaminopropylcarbamoyl)-2-oxobenzoxazol-3-ylmethyl]phenyl}carbamate]
26 | 10 to 1000 | CCS(=O)(=O)c1ccc2oc(=O)n(Cc3cccc(-c4ncc(OCCCN(C)C)cn4)c3)c2c1 [Compound A82]
27 | 10 to 1000 | COC(=O)c1ccc2oc(=O)n(Cc3cccc(-c4ncc(OCCCN(C)C)cn4)c3)c2c1 [Compound A64, methyl 3-{3-[5-(3-dimethylaminopropoxy)pyrimidin-2-yl]-benzyl}-2-oxo-2,3-dihydrobenzoxazole-5-carboxylate]
28 | 10 to 1000 | Cc1ccc2c(c1)oc(=O)n2Cc1cccc(NC(=O)OCCCN2CCN(C)CC2)c1 [Compound A21, 3-(4-Methylpiperazin-1-yl)propyl [3-(6-methyl-2-oxobenzoxazol-3-ylmethyl)phenyl]carbamate]
29 | 1000 to 10000 | CN(C)CCCOc1cnc(-c2cccc(Cn3c(=O)oc4ncccc43)c2)nc1 [Compound A95]
30 | 10 to 1000 | CN(C)CCCOC(=O)Nc1cccc(Cn2c(=O)oc3ccc(C(=O)N(C)C)cc32)c1 [Compound A12, 3-Dimethylaminopropyl [3-(5-dimethylcarbamoyl-2-oxobenzoxazol-3-ylmethyl)phenyl]carbamate]
31 | 10 to 1000 | Cc1ccc2oc(=O)n(Cc3cccc(-c4ncc(OCC5CCNCC5)cn4)c3)c2n1 [Compound A87]
32 | 10 to 1000 | CN1CCN(CCCOC(=O)Nc2cccc(Cn3c(=O)oc4ccccc43)c2)CC1 [Compound A18, 3-(4-Methylpiperazin-1-yl)propyl [3-(2-oxobenzoxazol-3-ylmethyl)phenyl]carbamate]
33 | 10 to 1000 | CC(O)c1ccc2c(c1)oc(=O)n2Cc1cccc(NC(=O)OCCCN2CCN(C)CC2)c1 (stereo not drawn) [Compound A9, 3-(4-methylpiperazin-1-yl)propyl {3-[6-(1-hydroxyethyl)-2-oxobenzoxazol-3-ylmethyl]phenyl}carbamate]
34 | 10 to 1000 | Cc1ccc2oc(=O)n(Cc3cccc(-c4ncc(OCCN5CCOCC5)cn4)c3)c2n1 [Compound A79]
35 | 10 to 1000 | CCOC(=O)Nc1cccc(Cn2c(=O)oc3cc(C(=O)OC)ccc32)c1 [Compound A37, Methyl 3-(3-ethoxycarbonylaminobenzyl)-2-oxo-2,3-dihydrobenzoxazole-6-carboxylate]
36 | 10 to 1000 | CN(C)CCCOC(=O)Nc1cccc(Cn2c(=O)oc3ccccc32)c1 [Compound A16, 3-Dimethylaminopropyl [3-(2-oxobenzoxazol-3-ylmethyl)phenyl]carbamate]
37 | 10 to 1000 | CN(C)C(=O)c1ccc2oc(=O)n(Cc3cccc(NC(=O)OCCCN4CCNCC4)c3)c2c1 [Compound A4, 3-Piperazin-1-ylpropyl [3-(5-dimethylcarbamoyl-2-oxobenzoxazol-3-ylmethyl)phenyl]carbamate]
38 | 10 to 1000 | CCOC(=O)Nc1cccc(Cn2c(=O)oc3ccc(C(=O)NCCN(C)C)cc32)c1 [Compound A30, Ethyl {3-[5-(2-dimethylaminoethylcarbamoyl)-2-oxobenzoxazol-3-ylmethyl]phenyl}carbamate]
39 | 1000 to 10000 | CN(C)CCCOc1cnc(-c2cccc(Cn3c(=O)oc4cc(F)c(F)cc43)c2)nc1 [Compound A93]
40 | 10 to 1000 | COC(=O)c1ccc2c(c1)oc(=O)n2Cc1cccc(NC(=O)OCCCN(C)C)c1 [Compound A14, 3-Dimethylaminopropyl [3-(6-methoxycarbonyl-2-oxobenzoxazol-3-ylmethyl)phenyl]carbamate]
41 | 10 to 1000 | CN(C)CCCOc1cnc(-c2cccc(Cn3c(=O)oc4ccc(C#N)cc43)c2)nc1 [Compound A66]
42 | 10 to 1000 | COc1ccc2c(c1)oc(=O)n2Cc1cccc(NC(=O)OCCCN2CCN(C)CC2)c1 [Compound A20, 3-(4-Methylpiperazin-1-yl)propyl [3-(6-methoxy-2-oxobenzoxazol-3-ylmethyl)phenyl]carbamate]

test system: not given; assay: not given

Row | melting point | SMILES
43 | 236 to 238 °C (dec.) | CC(c1cccc(NC(=O)OCCN2CCN(C)CC2)c1)n1c(=O)oc2cc(F)c(F)cc21 (stereo not drawn) (as salt: hydrochloride) [Compound A27, 2-(4-methylpiperazin-1-yl)ethyl {3-[1-(5,6-difluoro-2-oxobenzoxazol-3-yl)ethyl]phenyl}carbamate]
44 | 125 °C | COC(=O)c1ccc2oc(=O)n(Cc3cccc(-c4ncc(OCCCN(C)C)cn4)c3)c2c1 [Compound A64, methyl 3-{3-[5-(3-dimethylaminopropoxy)pyrimidin-2-yl]-benzyl}-2-oxo-2,3-dihydrobenzoxazole-5-carboxylate]
45 | 273 °C | CN(C)CCNC(=O)C(=O)Nc1cccc(Cn2c(=O)oc3cc(Cl)ccc32)c1 (as salt: hydrochloride) [Compound A141, N-[3-(6-chloro-2-oxobenzoxazol-3-ylmethyl)phenyl]-N′-(2-dimethylaminoethyl)oxalamide]
